This passage reports IC50 and Ki results from patent publication US20230293517A1, “ANTAGONIST COMPOUNDS” (AdoRx Therapeutics Limited, priority 2020, published 2023).

In experiment [1] the test system is CD8+T cells in human whole blood. The experiment can be described thus: Measurement of pCREB in CD8+T cells in human whole blood. The experiment is classed as cell-based. The note with it: 3 μM NECA, rolipram. How it is done: Biological Example—Measurement of pCREB in CD8+T Cells in Human Whole Blood
Heparinised human whole blood was pre-incubated at 37° C. with serial dilutions of A2a antagonists for 20 min. and the phosphodiesterase inhibitor rolipram to amplify the pCREB response. The adenosine receptor agonist NECA is then added at a final concentration of 3 μM and following a 60 min incubation the blood is fixed and red blood cells lysed. White blood cells are isolated, permeabilized and stained with directly conjugated fluorescent antibodies to phospho-CREB (Alexa Fluor 488) and CD8 (Alexa Fluor 647) and the level of phospho-CREB in CD8+T cells is measured by FACS using a BD Accuri C6 Flow Cytometer.

Experiment [2] addresses human Adenosine A1 receptor (Homo sapiens (Human), UniProt P30542). The experiment can be described thus: Adenosine receptor TR-FRET binding assay (A1). The note with it: inhibition of binding of 100 nM CA200645, CHO cell membranes. Put shortly:
(§1)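 Ki values come from Cheng–Prusoff conversion of IC50s for displacement of fluorescent antagonist CA200645 from terbium-labelled human adenosine receptors in CHO membranes. Tracer was 30 nM at A2b and 100 nM at the other three subtypes; incubation lasted 2 h at room temperature.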
On the technique in general: TR-FRET usually uses a lanthanide donor and a delayed reading to cut background.

The target of experiment [3] is human Adenosine A2a receptor (Homo sapiens (Human), UniProt P29274). In words: Adenosine receptor TR-FRET binding assay (A2a). As to conditions: inhibition of binding of 100 nM CA200645, CHO cell membranes. Put shortly: as §1
In experiment [4] the test system is human PBMCs. In words: CD3/CD28 stimulated IL-2 release NECA reversal assay in human PBMCs. Type of experiment: cell-based. As to conditions: PBMC, 1 uM NECA, 24 hours, IL-2 in culture supernatant. As to the method:
Biological Example—CD3/CD28 Stimulated IL-2 Release NECA Reversal Assay in Human PBMCs
Blood is drawn from healthy volunteers using sodium citrate as the anticoagulant (0.3% final concentration). After centrifugation of the blood over Histopaque-1077, PBMCs are collected from the Histopaque/plasma interface and washed twice in PBS (300 g for 10 mins at room temp). Cells are plated at 50,000 cells/well in 150 μl RPMI/10% FCS in 96-well cell culture plates that have been precoated with 1 ug/ml CD3 antibody. 50 μl diluted compound mix is added to the cells, to obtain final concentrations of 1 ug/ml CD28 antibody, 1 uM NECA and 0.003-10 μM adenosine receptor antagonist. Assay plates are incubated for 24 hours at 37° C. in a humidified incubator. Culture supernatant is tested for IL-2 levels using the human IL-2 Tissue Culture Kit (Meso Scale Discovery). Data for dose-response curves is calculated as % inhibition with 100% inhibition defined from no agonist control wells (+CD3/28-NECA)

Experiment [5] concerns the target human Adenosine A2b receptor (Homo sapiens (Human), UniProt P29275). The experiment can be described thus: Adenosine receptor TR-FRET binding assay (A2b). Put shortly: as §1
The target of experiment [6] is human Adenosine A3 receptor (Homo sapiens (Human), UniProt P0DMS8). In words: Adenosine receptor TR-FRET binding assay (A3). The note with it: inhibition of binding of 100 nM CA200645, CHO cell membranes. Put shortly:
as §1

Setting [7] is: TR-FRET, inhibition of binding of 30 nM CA200645, CHO cell membranes.

Like-named read-outs stand apart in the source and are kept apart here.

Chain of human Adenosine A1 receptor (P30542 whole entry): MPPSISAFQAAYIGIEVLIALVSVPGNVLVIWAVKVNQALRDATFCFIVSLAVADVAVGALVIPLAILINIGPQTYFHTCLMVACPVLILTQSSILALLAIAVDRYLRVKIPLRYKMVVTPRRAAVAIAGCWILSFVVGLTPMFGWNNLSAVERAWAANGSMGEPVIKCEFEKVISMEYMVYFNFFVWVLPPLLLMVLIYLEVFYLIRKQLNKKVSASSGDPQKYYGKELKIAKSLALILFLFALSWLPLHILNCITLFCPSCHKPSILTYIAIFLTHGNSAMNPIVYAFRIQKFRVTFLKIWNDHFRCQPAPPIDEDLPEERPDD
Chain of human Adenosine A2a receptor (P29274 whole entry): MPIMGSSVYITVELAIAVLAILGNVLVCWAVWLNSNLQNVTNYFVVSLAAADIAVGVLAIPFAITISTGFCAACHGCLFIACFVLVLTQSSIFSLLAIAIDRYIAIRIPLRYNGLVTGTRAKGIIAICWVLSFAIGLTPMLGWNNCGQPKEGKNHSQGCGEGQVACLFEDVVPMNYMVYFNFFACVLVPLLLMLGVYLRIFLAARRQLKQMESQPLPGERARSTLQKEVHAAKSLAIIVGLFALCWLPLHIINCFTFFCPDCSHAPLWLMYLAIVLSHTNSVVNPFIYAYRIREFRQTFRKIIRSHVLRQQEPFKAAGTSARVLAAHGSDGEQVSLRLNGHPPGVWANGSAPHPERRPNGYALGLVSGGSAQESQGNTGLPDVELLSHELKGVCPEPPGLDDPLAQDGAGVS
Chain of human Adenosine A3 receptor (P0DMS8 whole entry): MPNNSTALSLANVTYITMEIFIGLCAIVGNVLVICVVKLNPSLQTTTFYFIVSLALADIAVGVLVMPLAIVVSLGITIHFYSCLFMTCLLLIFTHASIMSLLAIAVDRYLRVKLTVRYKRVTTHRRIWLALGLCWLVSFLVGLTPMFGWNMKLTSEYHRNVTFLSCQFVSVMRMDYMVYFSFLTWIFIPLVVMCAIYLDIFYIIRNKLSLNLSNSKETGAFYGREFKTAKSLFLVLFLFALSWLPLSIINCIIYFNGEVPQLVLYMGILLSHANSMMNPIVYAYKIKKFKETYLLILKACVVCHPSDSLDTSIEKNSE
Chain of human Adenosine A2b receptor (P29275 whole entry): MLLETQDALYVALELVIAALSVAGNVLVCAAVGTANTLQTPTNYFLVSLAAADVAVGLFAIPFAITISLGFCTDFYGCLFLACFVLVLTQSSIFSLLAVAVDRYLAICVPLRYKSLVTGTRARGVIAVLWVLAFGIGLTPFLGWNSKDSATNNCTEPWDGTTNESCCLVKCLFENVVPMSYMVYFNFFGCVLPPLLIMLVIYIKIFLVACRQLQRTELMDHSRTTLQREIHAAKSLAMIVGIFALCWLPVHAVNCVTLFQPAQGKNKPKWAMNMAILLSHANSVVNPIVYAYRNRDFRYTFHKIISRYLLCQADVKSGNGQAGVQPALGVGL

In the case of `Cc1cc(-c2sc(NC(=O)N3CC[C@@H](C#N)C3)nc2-c2cccc(C#N)c2)cc(C)n1` [Example 4.10, (3R)-3-Cyano-N-[4-(3-cyanophenyl)-5-(2,6-dimethyl-4-pyridyl)thiazol-2-yl]pyrrolidine-1-carboxamide], the IC50 (as a rule, the midpoint of a concentration-inhibition curve) in experiment [1] is 100 nM; in experiment [4], 2.9 nM. The Ki (commonly a dissociation constant, usually derived from enzyme kinetics or from competition with a known ligand) in experiment [2] was 50 nM; in experiment [3], 0.38 nM; in experiment [5] (setting [7]) it was 2.5 nM; in experiment [6] it was 157 nM.
As for `Cc1cc(-c2sc(NC(=O)N3CCN4CCOCC4C3)nc2-c2cccc(C#N)c2)cc(C)n1` (stereo not drawn) [Example 4.11, N-[4-(3-Cyanophenyl)-5-(2,6-dimethyl-4-pyridyl)thiazol-2-yl]-3,4,6,7,9,9a-hexahydro-1H-pyrazino[2,1-c][1,4]oxazine-8-carboxamide], the figures for the IC50 in experiment [1] and in experiment [4] were 220 nM and 3.8 nM, respectively. Also, the Ki in experiment [2] came out at 225 nM; in experiment [3], 1.3 nM; in experiment [5] (setting [7]), 4.7 nM; in experiment [6], 482 nM.
In the case of `Cc1cc(-c2sc(NC(=O)N3CCNC(=O)C3)nc2-c2cccc(C#N)c2)cc(C)n1` [Example 4.13, N-[4-(3-Cyanophenyl)-5-(2,6-dimethyl-4-pyridyl)thiazol-2-yl]-3-oxo-piperazine-1-carboxamide], the IC50 is 550 nM in experiment [1] and 14.1 nM in experiment [4]. The Ki was found to be 50 nM in experiment [2], 1.5 nM in experiment [3], 1.7 nM in experiment [5] (setting [7]) and 195 nM in experiment [6].
In the case of `Cc1cc(-c2sc(NC(=O)N3CCN(C)C(=O)C3)nc2-c2cccc(C#N)c2)cc(C)n1` [Example 4.15, N-[4-(3-Cyanophenyl)-5-(2,6-dimethyl-4-pyridyl)thiazol-2-yl]-4-methyl-3-oxo-piperazine-1-carboxamide], the IC50 in experiment [1] is 650 nM; in experiment [4], 10.3 nM. The Ki in experiment [2] came out at 91 nM; in experiment [3] it was 2.3 nM; in experiment [5] (setting [7]), 1.4 nM; in experiment [6], 339 nM.
As for `CC(=O)N1CCN(C(=O)Nc2nc(-c3cccc(C#N)c3)c(-c3cc(C)nc(C)c3)s2)CC1` [Example 4.17, 4-Acetyl-N-[4-(3-cyanophenyl)-5-(2,6-dimethyl-4-pyridyl)thiazol-2-yl]piperazine-1-carboxamide], the IC50 worked out at 370 nM in experiment [1] and 8.5 nM in experiment [4]. Further, the Ki in experiment [2] is 77 nM; in experiment [3] it was 1.9 nM; in experiment [5] (setting [7]) it was 2.8 nM; in experiment [6] it was 293 nM.
As to `Cc1cc(-c2sc(NC(=O)N3CCN(S(C)(=O)=O)CC3)nc2-c2cccc(C#N)c2)cc(C)n1` [Example 4.18, N-[4-(3-cyanophenyl)-5-(2,6-dimethyl-4-pyridyl)thiazol-2-yl]-4-methylsulfonyl-piperazine-1-carboxamide], the figures for the IC50 in experiment [1] and in experiment [4] were 350 nM and 6.1 nM, respectively. Besides, the Ki came out at 94 nM in experiment [2], 0.6 nM in experiment [3], 2.3 nM in experiment [5] (setting [7]) and 414 nM in experiment [6].
For `Cc1cc(-c2sc(NC(=O)N3CCN(S(N)(=O)=O)CC3)nc2-c2cccc(C#N)c2)cc(C)n1` [Example 4.19, N-[4-(3-cyanophenyl)-5-(2,6-dimethyl-4-pyridyl)thiazol-2-yl]-4-sulfamoyl-piperazine-1-carboxamide], the figures for the IC50 in experiment [1] and in experiment [4] were 5520 nM and 5.4 nM, respectively. Also, the Ki in experiment [2] stood at 46 nM; in experiment [3], 0.6 nM; in experiment [5], 1.3 nM; in experiment [6], 232 nM.
Turning to `Cc1cc(-c2sc(NC(=O)N3CCC4(CC3)NC(=O)NC4=O)nc2-c2cccc(C#N)c2)cc(C)n1` [Example 4.20, N-[4-(3-Cyanophenyl)-5-(2,6-dimethyl-4-pyridyl)thiazol-2-yl]-2,4-dioxo-1,3,8-triazaspiro[4.5]decane-8-carboxamide], the IC50 is 130 nM in experiment [1] and 1.3 nM in experiment [4]. Also, the Ki in experiment [2] was 161 nM; in experiment [3], 1.5 nM; in experiment [5] (setting [7]) it was 2.6 nM; in experiment [6] it was 967 nM.
On to `Cc1cc(-c2sc(NC(=O)N3CC(CO)C3)nc2-c2cccc(C#N)c2)cc(C)n1` [Example 4.25, N-[4-(3-Cyanophenyl)-5-(2,6-dimethyl-4-pyridyl)thiazol-2-yl]-3-(hydroxymethyl)azetidine-1-carboxamide], for which the IC50 in experiment [1] was 50 nM; in experiment [4], 1.1 nM. Besides, the inhibition constant Ki came to 14 nM in experiment [2], 0.12 nM in experiment [3], 1.8 nM in experiment [5] (setting [7]) and 120 nM in experiment [6].
On to `Cc1cc(-c2sc(NC(=O)N3CC(C#N)C3)nc2-c2cccc(C#N)c2)cc(C)n1` [Example 4.26, 3-Cyano-N-[4-(3-cyanophenyl)-5-(2,6-dimethyl-4-pyridyl)thiazol-2-yl]azetidine-1-carboxamide], for which the IC50 in experiment [1] stood at 20 nM; in experiment [4] it was 0.4 nM. Further, the Ki in experiment [2] turned out to be 4 nM; in experiment [3] it was 0.05 nM; in experiment [5] (setting [7]) it was 0.4 nM; in experiment [6] it was 130 nM.
Consider `Cc1cc(-c2sc(NC(=O)N3CCC(C(N)=O)CC3)nc2-c2cccc(C#N)c2)cc(C)n1` [Example 4.29, N1-[4-(3-Cyanophenyl)-5-(2,6-dimethyl-4-pyridyl)thiazol-2-yl]piperidine-1,4-dicarboxamide], for which the half-maximal inhibitory concentration (IC50) in experiment [1] was determined as 50 nM; in experiment [4], 2.1 nM. Further, the Ki came to 24 nM in experiment [2], 0.13 nM in experiment [3], 1.3 nM in experiment [5] (setting [7]) and 112 nM in experiment [6].
Regarding `Cc1cc(-c2sc(NC(=O)N3CC(O)C3)nc2-c2cccc(C#N)c2)cc(C)n1` [Example 4.30, N-[4-(3-Cyanophenyl)-5-(2,6-dimethyl-4-pyridyl)thiazol-2-yl]-3-hydroxy-azetidine-1-carboxamide], the IC50 in experiment [1] was 60 nM; in experiment [4], 1.3 nM. Moreover, the Ki in experiment [2] was 7 nM; in experiment [3], 0.41 nM; in experiment [5] (setting [7]), 0.6 nM; in experiment [6], 106 nM.
Regarding `Cc1cc(-c2sc(NC(=O)N3CCN[C@H](CO)C3)nc2-c2cccc(C#N)c2)cc(Cl)n1` [Example 5.2, (3S)-N-[5-(2-Chloro-6-methyl-4-pyridyl)-4-(3-cyanophenyl)thiazol-2-yl]-3-(hydroxymethyl)piperazine-1-carboxamide], the results for the IC50 in experiment [1] and in experiment [4] were 1180 nM and 20.2 nM, respectively. Further, the Ki amounted to 40 nM in experiment [2], 0.84 nM in experiment [3], 0.9 nM in experiment [5] (setting [7]) and 70 nM in experiment [6].
Turning to `Cc1cc(-c2sc(NC(=O)N3CCN[C@@H](C)C3)nc2-c2cccc(C#N)c2)cc(Cl)n1` [Example 5.4, (3S)-N-[5-(2-Chloro-6-methyl-4-pyridyl)-4-(3-cyanophenyl)thiazol-2-yl]-3-methyl-piperazine-1-carboxamide], the figures for the IC50 in experiment [1] and in experiment [4] were 1950 nM and 71.8 nM, respectively. Moreover, the Ki in experiment [2] amounted to 111 nM; in experiment [3] it was 1.03 nM; in experiment [5], 5.8 nM; in experiment [6] it was 33 nM.
For `Cc1cc(-c2sc(NC(=O)N3CCN[C@H](C)C3)nc2-c2cccc(C#N)c2)cc(Cl)n1` [Example 5.5, (3R)-N-[5-(2-Chloro-6-methyl-4-pyridyl)-4-(3-cyanophenyl)thiazol-2-yl]-3-methyl-piperazine-1-carboxamide], the concentration for half-maximal inhibition (IC50) in experiment [1] was found to be 2690 nM; in experiment [4], 30.6 nM. In addition, the Ki is 114 nM in experiment [2], 0.94 nM in experiment [3], 2.4 nM in experiment [5] (setting [7]) and 70 nM in experiment [6].
Regarding `Cc1cc(-c2sc(NC(=O)N3C[C@@H]4C[C@H]3CN4)nc2-c2cccc(C#N)c2)cc(Cl)n1` [Example 5.6, (1S,4S)-N-[5-(2-Chloro-6-methyl-4-pyridyl)-4-(3-cyanophenyl)thiazol-2-yl]-2,5-diazabicyclo[2.2.1]heptane-2-carboxamide], the results for the IC50 in experiment [1] and in experiment [4] were 720 nM and 30.5 nM, respectively. Also, the Ki in experiment [2] came out at 22 nM; in experiment [3] it was 2.13 nM; in experiment [5] (setting [7]), 4.2 nM; in experiment [6], 31 nM.
